According to patent US10729666B2, “Use of GABAA receptor reinforcing agent in preparation of sedative and anesthetic medicament” (Sichuan Haisco Pharmaceutical Co., Ltd., priority 2014, dated 2020):

What was measured:
ICR mice = experiment: Righting reflex experiment on mice; settings: for Anesthesia induction time / Anesthesia maintenance time / SI / TI / HD7: intravenous; for Anesthesia induction time: end of administration until loss of righting reflex; for Anesthesia maintenance time: loss until recovery of righting reflex; for ED50: Mus musculus, iv; for SI: safety index, LD5/ED95; for TI: therapeutic index, LD50/ED50; for HD7: dose required to cause a 7-min anesthesia
Description: (§1) LD5 (5% lethal dose): dose required to cause 5% of animals to die in a test.
(§2) If a normal animal was able to immediately body-right after being pushed over or made lying on its back, such a reflex was determined as the righting reflex. Otherwise, loss of the righting reflex and the time of loss were recorded, and a reflex recovery time was recorded when the animal restored the righting reflex. The period from finishing of drug administration until loss of the righting reflex was recorded as the anesthesia induction time, and the period from loss of the righting reflex until recovery of the righting reflex was recorded as the anesthesia maintenance time.
(§3) TI (therapeutic index, i.e. LD50/ED50), SI (safety index, i.e. LD5/ED95).
(§4) MTD (maximum tolerated dose): the maximum dose able to cause 100% of animals to loss the righting index without death.
(§5) Indicators such as median effective dose (ED50), median lethal dose (LD50), therapeutic index (TI, i.e. LD50/ED50), safety index (SI, i.e. LD5/ED95), anesthesia induction time, anesthesia maintenance time, and maximum tolerated dose (MTD) were used to evaluate the effect and safety of anesthesia. […] After adapting to the laboratory environment, laboratory animals were fasted for 12 hours. On the next day, administration was carried out at 10 mg/kg body weight. Upon intravenous injection, the time of loss of the righting reflex was recorded. The period from finishing of drug administration until loss of the righting reflex was recorded as the anesthesia induction time, and the period from loss of the righting reflex until recovery of the righting reflex was recorded as the anesthesia maintenance time. The anesthesia induction time and the anesthesia maintenance time were used to indicate how strong an anesthetic effect was. Meanwhile, the dose required to cause a 7-min anesthesia (HD7) was measured and used to evaluate relative efficacy.

[1] = Righting reflex experiment on mice; settings: both, ICR, mouse, in vivo, iv
Description: as §1, §2, §3, §4, §5

healthy male volunteers = experiment: Preliminary pharmacodynamic studies with healthy humans; type: in vivo; settings: single intravenous injection of the emulsion injection
Description: The subjects were fasted during the night for 6 hours or longer. The Emulsion injection of Compound 7 was administered by single intravenous injection. Groups 1 and 2 were administered by manual push injection for 2 to 3 seconds, and Groups 3-8 were administered by constant-rate pump injection for more than 1 min.
Primary indices include RASS and the tolerance to pain during injection (Verbal rating scale (VRS) was used to allow the researchers to know the pain degree of subjects); and secondary indices include cardiovascular indices and EEG (electroencephalogram) and BIS (Bispectral index) associated with the cognitive function recovery evaluation (QoR-40).

Row | SMILES | Anesthesia induction time (ICR mice; ICR mice) [s] | Anesthesia maintenance time (ICR mice; ICR mice) [s] | ED50 (ICR mice) [mg/kg] | SI (ICR mice; ICR mice) | TI (ICR mice; ICR mice) | LD50 [1] [mg/kg] | MTD [1] [mg/kg] | dose with which subjects started showing light anesthesia (healthy male volunteers) [mg/kg] | HD7 (ICR mice; ICR mice) [mg/kg] | LD50 (ICR mice; ICR mice, intravenous injection, solvent 10% DMSO, 15% solutol HS15, 75% saline) [mg/kg]
1 | CC(C)c1cccc([C@@H](C)C2CC2)c1O [Compound 8, 2-[(1S)-1-cyclopropylethyl]-6-isopropyl-phenol] | <15.0 | 1031.6 | 5.8 | 3.5 | 7.5 | 43.6 | 20 |  |  | 
2 | CC(C)c1cccc([C@H](C)C2CC2)c1O [Compound 7, 2-[(1R)-1-cyclopropylethyl]-6-isopropyl-phenol] |  |  |  |  |  |  |  | 0.128 |  | 
3 | C[C@H](c1cccc([C@H](C)C2CC2)c1O)C1CC1 [Compound 9, 2-[(1S)-1-cyclopropylethyl]-6-[(1R)-1-cyclopropylethyl]phenol] |  |  |  |  |  |  |  |  | 2.5 | 
4 | CC(C)c1cccc(C(C)C2CC2)c1O (racemic) [Compound 1, 2-(1-cyclopropylethyl)-6-isopropylphenol] | <15.0 | 660.4 | 3.7 | 1.7 | 6.1 |  | 10 |  | 6.0 | 
5 | C[C@@H](c1cccc([C@H](C)C2CC2)c1O)C1CC1 [Compound 10, 2,6-bis[(1R)-1-cyclopropylethyl]phenol] |  | 754.4 | 1.5 | 3.8 | 4.1 |  | 5 |  |  | 6.3
